The record followed here is ChEMBL document CHEMBL2439976, “Discovery of NMS-E973 as novel, selective and potent inhibitor of heat shock protein 90 (Hsp90)” (Bioorg Med Chem, 2013).

The nature of data set [1]: in vivo. The settings on record: Balb nu/nu, mouse, iv, 10 mg/kg.
The nature of data set [2]: in vivo. The settings on record: Balb nu/nu, mouse, iv, 10 mg/kg. This is another data set of the same source.
Data set [3] is described as follows: in vivo. The settings on record: Balb nu/nu, mouse, iv, 10 mg/kg. This is another data set of the same source.
Data set [4] is described as follows: in vivo. The conditions noted are these: Balb nu/nu, mouse, plasma, iv, 10 mg/kg.

Compound `CN(C)c1ccc(Oc2cc(O)cc(O)c2-c2cc(C(=O)NC3CCN(C4CCC5(CC4)OCCO5)CC3)no2)cc1` had a half-life in “in vivo [1]” of 5.46 h. The compound further displayed a volume of distribution (Vd) in “in vivo [2]” of 4.94 L/kg. For the same compound, the clearance in the data set “in vivo [3]” stood at 29.4 mL/min/kg. This compound also gave an AUC(0-inf) in “in vivo [4]” of 7.6 µM·h.

The compound `CN1CCC(NC(=O)c2cc(-c3c(O)cc(O)cc3Oc3ccc(N(C)C)cc3)on2)CC1` gave a half-life in “in vivo [1]” of 5.55 h. The compound further registered a volume of distribution (Vd) in the data set “in vivo [2]” of 19.7 L/kg. The compound also had a clearance in the data set “in vivo [3]” of 62.3 mL/min/kg. The compound further registered an AUC(0-inf) in the data set “in vivo [4]” of 5.92 µM·h.

In turn, `CC(C)Nc1ccc(Oc2cc(O)cc(O)c2-c2cc(C(=O)NC3CCN(C)CC3)no2)cc1` showed a half-life in the data set “in vivo [1]” of 5.44 h. The volume of distribution (Vd) in “in vivo [2]” came to 18.4 L/kg. Also, in the data set “in vivo [3]”, the clearance is 64.8 mL/min/kg. In addition, in the data set “in vivo [4]”, the total exposure AUC(0-inf) came out at 4.8 µM·h.
